We go through two molecules from patent US20150335634A1, “ISOQUINOLINE ALKALOID DERIVATIVE FOR ACTIVATING AMP-DEPENDENT PROTEIN KINASE” (ZIH YUAN TANG Biotechnology Co., Ltd, priority 2014, published 2015).

For assay [1], the system named is AMP-dependent protein kinase (AMPK). Kind of assay: AMPK phosphorylation (Phospho-AMPKα Thr172 Western blot) in C2C12 myocytes. In kind it is cell-based, mice. The protocol: C2C12 skeletal myoblast cell line was purchased from the Food Industry Research and Development Institute (Hsinchu, Taiwan). The C2C12 cell line was a cell line obtained from culturing the leg skeletal muscle of adult C3H mice in a cell incubator under 95% […], 5% CO2, and 37° C. The cells were cultured in a DMEM medium (Gibco/Invitrogen, Carlsbad, Calif.) containing 4.5 mg/mL glucose, 10% fetal bovine serum (FBS; Gibco/Invitrogen, Carlsbad, Calif.), and an antibiotic solution (with final concentrations of penicillin=100 IU/mL and streptomycin=100 μg/mL). When the C2C12 myoblast cells have proliferated to cover seven-tenths of the area in the petri dish, the fetal bovine serum was replaced by 2% horse serum (Gibco/Invitrogen, Carlsbad, Calif.) so as to induce the C2C12 myoblast cells to become the multi-nuclei myocytes. The C2C12 myoblast cells differentiated into myocytes in 4 days, and the culture medium of the cells was replaced with no-serum DMEM 24 hours before the experiments so as to reduce metabolism of the cells.
The C2C12 myocytes were treated respectively with 1 μM, 3 μM and 10 μM salsolinol and reticuline for 5 and 15 minutes. Then the C2C12 myocytes were rinsed with PBS buffer solution, and RIPA buffer solution containing protease inhibitors (20 mM Tris-HCl (pH 7.4), 100 mM NaCl, 1 mM EDTA, 1 mM EGTA, 0.1% SDS, 0.5% sodium deoxycholate, 1% NP-40, and 100X protease inhibitor cocktail) was added into the cells. The cells were collected and centrifuged on ice. Then, the concentrations of the supernatant samples were adjusted to be the same.
The supernatant samples were put through vertical electrophoresis isolation with 8% SDS-PAGE, and the isolated proteins were transferred onto a PVDF blotting membrane. After blotting was completed, the PVDF blotting membrane was removed and blocked for 1 hour under room temperature with a blocking buffer of TBST (Tris-buffered saline with Tween-20) with 5% non-fat milk. Then, the PVDF blotting membrane was placed into a 5% BSA and TBST solution containing the primary monoclonal antibodies Phospho-AMPKα (Thr172) (Cell Signaling) (1:1000) and AMPKα […] (Cell Signaling) (1:1000), respectively, and the primary immunoblotting reaction was performed under 4° C. Then, the PVDF blotting membrane was rinsed 3 times with TBST, and a TBST solution containing the secondary antibody goat anti-rabbit IgG (Perkin Elmer) (1:10000) was added to perform the secondary reaction for one hour under room temperature. Finally, the membrane was rinsed 3 times with TBST before ECL (enhanced chemiluminescence) was added to present color.
In general terms: Immunoblotting shows a protein as a band on a membrane.

Assay [2] concerns ICR mice with Type II diabetes induced by high-sugar high-lipid food. Nature of the assay: oral glucose tolerance test (OGTT) in ICR mice fed with high-lipid food and high fructose syrup. In kind it is in vivo. The protocol: ICR mice were each fed with high-lipid food and high fructose syrup for 2 weeks. Then, salsolinol (10 mg/Kg/day) and Glibenclamide (10 mg/Kg) were administered on day 1. After 30 minutes, glucose (1 g/Kg) was orally administered and blood was taken from the mice immediately thereafter (this time point was designated as 0 minute). Blood was also taken later at 30, 60, 90, 120 and 150 minutes, and the blood glucose levels in the serum were determined
ICR mice were each fed with high-lipid food and high fructose syrup for 2 weeks, and then administered with salsolinol (10 mg/Kg/day) and Glibenclamide (10 mg/Kg) for 14 consecutive days. Afterwards, salsolinol (10 mg/Kg/day) and Glibenclamide (10 mg/Kg) were again administered, and glucose (1 g/Kg) was orally administered after 30 minutes and blood was taken from the mice immediately thereafter (this time point was designated as 0 minute). Blood was also taken later at 30, 60, 90, 120 and 150 minutes, and the blood glucose levels in the serum were determined.
The effect of blood glucose reduction was evaluated with the oral glucose tolerance test (OGTT). […] Blood was also taken later at 30, 60, 90, 120 and 150 minutes, and the blood glucose levels in the serum were determined after centrifugation.

The test system of a further assay is insulin secretion. Nature of the assay: effect on insulin secretion compared with Glibenclamide. The following applies: as opposed to Glibenclamide.

With `COc1ccc(C[C@H]2c3cc(O)c(OC)cc3CCN2C)cc1O` [reticuline], the “AMPK phosphorylation relative to control cells” value in assay [1] (3 μM, treated for 5 minutes) is reported as 1.52 times of that in the control cells; in assay [1] (3 μM, treated for 15 minutes) it was 1.04 times of that in the control cells; in assay [1] (10 μM, treated for 5 minutes), 2.05 times of that in the control cells; in assay [1] (10 μM, treated for 15 minutes), 2.07 times of that in the control cells.

`CC1NCCc2cc(O)c(O)cc21` (centres unmarked) [salsolinol]: in assay [1] (10 μM, treated for 5 minutes), the “AMPK phosphorylation relative to control cells” value is on record as 1.66 times of that in the control cells. In addition, the “long-term reduction of blood glucose (OGTT)” value in assay [2] (10 mg/Kg/day for 14 consecutive days, glucose 1 g/Kg orally after 30 minutes, compared with Glibenclamide 10 mg/Kg (FIG. 4)) is “blood glucose-reduction effect similar to that of Glibenclamide”. Moreover, the “fast reduction of blood glucose (OGTT)” value in assay [2] (10 mg/Kg/day, administration on day 1, glucose 1 g/Kg orally after 30 minutes, compared with Glibenclamide 10 mg/Kg (FIG. 3)) is “blood glucose-reduction effect similar to that of Glibenclamide”. The “effect on insulin secretion” value with insulin secretion is listed as “lower effect on insulin secretion”.
